Measurements published in patent publication US7803778B2, “Glucose transport inhibitors and methods of use” (Theracos, Inc., priority 2006, dated 2010).
Read-outs that look alike come from different tables or passages of the source.

Experiments:
human SGLT2 = target: T1, human SGLT2 (Homo sapiens, UniProt P31639); assay: Methyl-α-D-[U-14C]glucopyranoside uptake assay, SGLT2; format: cell-based; settings: HEK293.ETN cells stably expressing human SGLT2, sodium-dependent uptake, 1.5 h incubation
T1 construct: A full-length cDNA clone expressing human SGLT2
T1 sequence (P31639 1-672): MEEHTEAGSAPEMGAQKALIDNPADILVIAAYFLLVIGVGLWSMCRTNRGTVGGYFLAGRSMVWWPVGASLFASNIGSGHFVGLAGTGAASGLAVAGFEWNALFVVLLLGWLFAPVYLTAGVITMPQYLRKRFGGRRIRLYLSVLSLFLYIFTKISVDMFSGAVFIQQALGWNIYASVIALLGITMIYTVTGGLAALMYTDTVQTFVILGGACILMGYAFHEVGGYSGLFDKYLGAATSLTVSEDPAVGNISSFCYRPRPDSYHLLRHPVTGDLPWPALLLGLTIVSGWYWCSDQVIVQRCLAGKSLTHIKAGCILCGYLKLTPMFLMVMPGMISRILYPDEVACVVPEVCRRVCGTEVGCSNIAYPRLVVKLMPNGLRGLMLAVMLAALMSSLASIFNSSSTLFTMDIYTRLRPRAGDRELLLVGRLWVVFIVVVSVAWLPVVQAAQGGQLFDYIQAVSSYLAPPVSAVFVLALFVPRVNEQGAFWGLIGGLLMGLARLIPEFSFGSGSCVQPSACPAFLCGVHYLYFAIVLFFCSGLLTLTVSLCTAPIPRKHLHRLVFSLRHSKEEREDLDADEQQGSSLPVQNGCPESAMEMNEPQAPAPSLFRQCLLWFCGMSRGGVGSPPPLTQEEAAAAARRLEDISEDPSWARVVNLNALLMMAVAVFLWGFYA
Excerpt: A full-length cDNA clone expressing human SGLT2 (GenScript Corporation) was subcloned into Hind III and Not I sites of pEAK15 expression vector. Clones harboring the cDNA inserts were identified by restriction analysis.
Plasmid containing human SGLT2 was linearized with Nsi I and purified by agarose gel electrophoresis. Using Lipofectamine 2000 Transfection Reagent (Invitrogen Corporation), DNA was transfected into HEK293.ETN cells and cultured in Dulbecco's Modified Eagle Medium (DMEM) containing 10% fetal bovine serum (FBS) at 37° C. under 5% CO2 for 24 h. Transfectants were selected in the same growth medium supplemented with puromycin (Invitrogen Corporation) for two weeks. Puromycin-resistant cells were recovered and seeded on a fresh 96-well plate (single cell per well) and cultured in the presence of puromycin until cells became confluent. Puromycin-resistant clones were evaluated for SGLT2 activity in the methyl-α-D-[U-^14C]glucopyranoside uptake assay described below.
(§1) Cells expressing SGLT1 or SGLT2 were seeded on 96-well ScintiPlate scintillating plates (PerkinElmer, Inc.) in DMEM containing 10% FBS (1×10^5 cells per well in 100 μl medium) incubated at 37° C. under 5% CO2 for 48 h prior to the assay. Cells were washed twice with 150 μl of either sodium buffer (137 mM NaCl, 5.4 mM KCl, 2.8 mM CaCl2, 1.2 mM MgCl2, 10 mM tris(hydroxymethyl)aminomethane/N-2-hydroxyethylpiperazine-N′-ethanesulfonic acid [Tris/Hepes], pH 7.2) or sodium-free buffer (137 mM N-methyl-glucamine, 5.4 mM KCl, 2.8 mM CaCl2, 1.2 mM MgCl2, 10 mM Tris/Hepes, pH 7.2). Test compound in 50 μl each of sodium or sodium-free buffer containing 40 μCi/ml methyl-α-D-[U-^14C]glucopyranoside (Amersham Biosciences/GE Healthcare) was added per well of a 96-well plate and incubated at 37° C. with shaking for either 2 h (SGLT1 assay) or 1.5 h (SGLT2 assay). Cells were washed twice with 150 μl of wash buffer (137 mM N-methylglucamine, 10 mM Tris/Hepes, pH 7.2) and methyl-α-D-[U-^14C]glucopyranoside uptake was quantitated using a TopCount scintillation counter (PerkinElmer, Inc.). Sodium-dependent glucopyranoside uptake was measured by subtracting the values obtained with sodium-free buffer from those obtained using sodium buffer (average of triplicate determinations).

human SGLT1 = target: T2, human SGLT1 (Homo sapiens, UniProt P13866); assay: Methyl-α-D-[U-14C]glucopyranoside uptake assay, SGLT1; format: cell-based; settings: COS-7 cells transfected with human SGLT1; sodium-dependent uptake, 2 h incubation
T2 construct: Full-length human SGLT1 cDNA on pDream2.1 expression vector; host or cells: COS-7 cells
T2 sequence (P13866 1-664): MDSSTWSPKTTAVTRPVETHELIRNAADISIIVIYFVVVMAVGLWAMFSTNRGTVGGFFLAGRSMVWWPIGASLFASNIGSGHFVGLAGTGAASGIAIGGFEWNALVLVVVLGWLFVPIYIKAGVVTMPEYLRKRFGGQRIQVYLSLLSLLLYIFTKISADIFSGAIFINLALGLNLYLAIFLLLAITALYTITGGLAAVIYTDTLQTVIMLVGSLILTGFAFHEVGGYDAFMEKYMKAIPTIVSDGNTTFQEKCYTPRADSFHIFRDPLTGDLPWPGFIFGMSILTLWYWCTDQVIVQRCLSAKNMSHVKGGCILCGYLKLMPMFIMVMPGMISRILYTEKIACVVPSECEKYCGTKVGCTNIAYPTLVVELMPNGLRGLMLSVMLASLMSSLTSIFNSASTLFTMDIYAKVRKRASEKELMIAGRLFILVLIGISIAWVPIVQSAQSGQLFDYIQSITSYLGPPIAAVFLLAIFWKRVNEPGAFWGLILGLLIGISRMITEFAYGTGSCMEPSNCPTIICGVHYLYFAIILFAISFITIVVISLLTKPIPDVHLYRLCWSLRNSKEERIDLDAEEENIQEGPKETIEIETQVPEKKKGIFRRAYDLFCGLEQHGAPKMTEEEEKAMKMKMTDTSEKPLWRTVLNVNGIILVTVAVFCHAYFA
Protocol: Full-length human SGLT1 cDNA on pDream2.1 expression vector was obtained from GenScript Corporation and propagated in Escherichia coli strain DH5α using Luria-Bertani (LB) medium containing ampicillin. Plasmid DNA was isolated using the QIAGEN Plasmid Midi Kit (QIAGEN Inc.). […] Transfected cells were stored in DMEM containing 10% dimethyl sulfoxide (DMSO) at −80° C.
as §1

Structure (SMILES) | IC50 (human SGLT2; read-out: IC50 SGLT2) [nM] | IC50 (human SGLT1) [nM] | IC50 (human SGLT2; read-out: SGLT2 IC50) [nM]
CCc1ccc(Cc2cc3c(cc2Cl)CO[C@]32O[C@H](COC)[C@@H](O)[C@H](O)[C@H]2O)cc1 [Compound AG, (1S,3′R,4′S,5′S,6′R)-5-chloro-6-(4-ethylbenzyl)-6′-(methoxymethyl)-3′,4′,5′,6′-tetrahydro-3H-spiro[isobenzofuran-1,2′-pyran]-3′,4′,5′-triol] | < 1000 | 1000 to 10000 | 
CCc1ccc(Cc2cc3c(cc2Cl)CO[C@]32O[C@H](COC(C)=O)[C@@H](O)[C@H](O)[C@H]2O)cc1 [Compound AH, ((1S,3′R,4′S,5′S,6′R)-5-chloro-6-(4-ethylbenzyl)-3′,4′,5′-trihydroxy-3′,4′,5′,6′-tetrahydro-3H-spiro[isobenzofuran-1,2′-pyran]-6′-yl)methyl acetate] | < 1000 | 1000 to 10000 | 
CCc1ccc(Cc2cc3c(cc2Cl)CO[C@]32O[C@H](COCC(F)(F)F)[C@@H](O)[C@H](O)[C@H]2O)cc1 [Compound AI, (1S,3′R,4′S,5′S,6′R)-5-chloro-6-(4-ethylbenzyl)-6′-((2,2,2-trifluoroethoxy)methyl)-3′,4′,5′,6′-tetrahydro-3H-spiro[isobenzofuran-1,2′-pyran]-3′,4′,5′-triol] | < 1000 | > 10000 | 
CCc1ccc(Cc2cc3c(cc2Cl)CO[C@]32O[C@H](CNC(C)=O)[C@@H](O)[C@H](O)[C@H]2O)cc1 [Compound AM, N-(((1S,3′R,4′S,5′S,6′R)-5-chloro-6-(4-ethylbenzyl)-3′,4′,5′-trihydroxy-3′,4′,5′,6′-tetrahydro-3H-spiro[isobenzofuran-1,2′-pyran]-6′-yl)methyl)acetamide] | < 1000 | 1000 to 10000 | 
CCc1ccc(C(=O)c2cc3c(cc2Cl)CO[C@]32O[C@H](CO)[C@@H](O)[C@H](O)[C@H]2O)cc1 [Compound AQ, ((1S,3′R,4′S,5′S,6′R)-5-chloro-3′,4′,5′-trihydroxy-6′-(hydroxymethyl)-3′,4′,5′,6′-tetrahydro-3H-spiro[isobenzofuran-1,2′-pyran]-6-yl)(4-ethylphenyl)methanone] | < 1000 | > 10000 | 
CCc1ccc(Cc2cc3c(cc2Cl)CC[C@]32O[C@H](CO)[C@@H](O)[C@H](O)[C@H]2O)cc1 [Compound AV, (1S,3′R,4′S,5′S,6′R)-5-chloro-6-(4-ethylbenzyl)-6′-(hydroxymethyl)-2,3,3′,4′,5′,6′-hexahydrospiro[indene-1,2′-pyran]-3′,4′,5′-triol] | < 1000 | 1000 to 10000 | 
CCc1ccc(Cc2cc3c(cc2Cl)C(CCO)C[C@]32O[C@H](CO)[C@@H](O)[C@H](O)[C@H]2O)cc1 (stereo partly drawn) [Compound BA, (1S,3′R,4′S,5′S,6′R)-5-chloro-6-(4-ethylbenzyl)-3-(2-hydroxyethyl)-6′-(hydroxymethyl)-2,3,3′,4′,5′,6′-hexahydrospiro[indene-1,2′-pyran]-3′,4′,5′-triol] | < 1000 | > 10000 | 
CCc1ccc(Cc2cc3c(cc2Cl)C(O)C[C@]32O[C@H](CO)[C@@H](O)[C@H](O)[C@H]2O)cc1 (stereo partly drawn) [Compound BB, (1S,3′R,4′S,5′S,6′R)-5-chloro-6-(4-ethylbenzyl)-6′-(hydroxymethyl)-2,3,3′,4′,5′,6′-hexahydrospiro[indene-1,2′-pyran]-3,3′,4′,5′-tetraol] | < 1000 | > 10000 | 

Results, then the molecule that gave them:

IC50 (human SGLT2; read-out: IC50 SGLT2) [nM] | IC50 (human SGLT1) [nM] | IC50 (human SGLT2; read-out: SGLT2 IC50) [nM] | Structure (SMILES)
< 1000 | > 10000 |  | CCc1ccc(Cc2cc3c(cc2Cl)C(OC)C[C@]32O[C@H](CO)[C@@H](O)[C@H](O)[C@H]2O)cc1 (stereo partly drawn) [Compound BD, (1S,3′R,4′S,5′S,6′R)-5-chloro-6-(4-ethylbenzyl)-6′-(hydroxymethyl)-3-methoxy-2,3,3′,4′,5′,6′-hexahydrospiro[indene-1,2′-pyran]-3′,4′,5′-triol]
< 1000 | > 10000 |  | CCc1ccc(Cc2cc3c(cc2Cl)C(F)C[C@]32O[C@H](CO)[C@@H](O)[C@H](O)[C@H]2O)cc1 (stereo partly drawn) [Compound BE, (1S,3′R,4′S,5′S,6′R)-5-chloro-6-(4-ethylbenzyl)-3-fluoro-6′-(hydroxymethyl)-2,3,3′,4′,5′,6′-hexahydrospiro[indene-1,2′-pyran]-3′,4′,5′-triol]
< 1000 | > 10000 |  | OC[C@H]1O[C@]2(CCc3cc(Cl)c(Cc4ccc(O[C@H]5CCOC5)cc4)cc32)[C@H](O)[C@@H](O)[C@@H]1O [Compound BG, (1S,3′R,4′S,5′S,6′R)-5-chloro-6′-(hydroxymethyl)-6-(4-((S)-tetrahydrofuran-3-yloxy)benzyl)-2,3,3′,4′,5′,6′-hexahydrospiro[indene-1,2′-pyran]-3′,4′,5′-triol]
< 1000 | > 10000 | 71 | CCOc1ccc(Cc2ccc3c(c2)[C@]2(OC3)O[C@H](CO)[C@@H](O)[C@H](O)[C@H]2O)cc1 [Compound G, (1S,3′R,4′S,5′S,6′R)-6-(4-ethoxybenzyl)-6′-(hydroxymethyl)-3′,4′,5′,6′-tetrahydro-3H-spiro[isobenzofuran-1,2′-pyran]-3′,4′,5′-triol]
< 1000 | 1000 to 10000 | 5.1 | CCOc1ccc(Cc2cc3c(cc2Cl)CO[C@]32O[C@H](CO)[C@@H](O)[C@H](O)[C@H]2O)cc1 [Compound H, (1S,3′R,4′S,5′S,6′R)-5-chloro-6-(4-ethoxybenzyl)-6′-(hydroxymethyl)-3′,4′,5′,6′-tetrahydro-3H-spiro[isobenzofuran-1,2′-pyran]-3′,4′,5′-triol]
< 1000 | < 1000 |  | CCc1ccc(Cc2cc3c(cc2Cl)CO[C@]32O[C@H](CO)[C@@H](O)[C@H](O)[C@H]2O)cc1 [Compound K, (1S,3′R,4′S,5′S,6′R)-5-chloro-6-(4-ethylbenzyl)-6′-(hydroxymethyl)-3′,4′,5′,6′-tetrahydro-3H-spiro[isobenzofuran-1,2′-pyran]-3′,4′,5′-triol]
